Where a name gives a salt, the structure may show the parent alone.
Row | melting point | Structure (SMILES)
1 | 243 to 247 °C (dec.) | Cl.Cl.O=C(CC1CCN(Cc2ccc(F)cc2)CC1)c1ccc2c(c1)CCN(Cc1ccccc1)CC2
2 | 220 to 222 °C (dec.) | Cl.Cl.O=C(CCCC1CCN(Cc2ccccc2)CC1)c1ccc2c(c1)CCN(Cc1ccccc1)CC2
3 | 226 to 229 °C (dec.) | Cl.Cl.O=C(CCCC1CCN(Cc2ccc(F)cc2)CC1)c1ccc2c(c1)CCN(Cc1ccccc1)CC2
4 | 229 to 233 °C | Cc1ccc(CN2CCC(CC(=O)c3ccc4c(c3)CCN(Cc3ccccc3)CC4)CC2)cc1.Cl.Cl
5 | 226 to 229 °C (dec.) | Cc1ccccc1CN1CCC(CCCC(=O)c2ccc3c(c2)CCN(Cc2ccccc2)CC3)CC1.Cl.Cl
6 | 222 to 225 °C (dec.) | Cc1cccc(CN2CCC(CCCC(=O)c3ccc4c(c3)CCN(Cc3ccccc3)CC4)CC2)c1.Cl.Cl
7 | 207 to 210 °C (dec.) | Cc1ccc(CN2CCC(CCCC(=O)c3ccc4c(c3)CCN(Cc3ccccc3)CC4)CC2)cc1.Cl.Cl
8 | 197 to 200 °C | Cc1ccccc1CN1CCc2ccc(C(=O)CCCC3CCN(Cc4ccc(F)cc4)CC3)cc2CC1.Cl.Cl
9 | 208 to 211 °C | Cc1ccc(CN2CCC(CCCC(=O)c3ccc4c(c3)CCN(Cc3ccc([N+](=O)[O-])cc3)CC4)CC2)cc1.Cl.Cl
10 | 206 to 209 °C (dec.) | Cc1ccc(CN2CCC(CCCC(=O)c3ccc4c(c3)CCN(Cc3ccc(C#N)cc3)CC4)CC2)cc1.Cl.Cl
11 | 93 to 94 °C | CC(=O)N1CCc2ccc(C(=O)CCCC3CCN(Cc4ccccc4C)CC3)cc2CC1.Cl
12 | 118 to 121 °C | Cl.O=C(CCC1CCN(C(=O)c2ccccc2)CC1)c1ccc2c(c1)CCN(Cc1ccccc1)CC2
13 | 95 to 98 °C | COc1ccc(CN2CCc3cc(C(=O)CCC4CCN(Cc5ccccc5)CC4)ccc32)cc1.O=C(O)/C=C/C(=O)O
14 | 155 to 158 °C | CC(=O)N1CCC(CCC(=O)c2ccc3c(c2)CN(Cc2ccccc2)c2ccccc2CC3)CC1.Cl
15 | 186 to 188 °C | CC(=O)N1CCC(CCC(=O)c2ccc3c(c2)CN(Cc2ccc(F)cc2)CCO3)CC1.Cl
16 | 212 to 215 °C | COc1ccc(CN2CCc3ccc(C(=O)CCC4CCN(C(=O)c5ccc(-c6ccccc6)cc5)CC4)cc3CC2)cc1.Cl
17 | 228 to 230 °C | O=C(CCC1CCN(Cc2cccnc2)CC1)c1ccc2c(c1)CN(Cc1ccccc1)CCO2 (as salt: hydrochloride)
18 | 199 °C (dec.) | CCOC(=O)C1(C(=O)OCC)Oc2ccc(CN3CCC(CCC(=O)c4ccc5c(c4)CN(Cc4ccc(F)cc4)CCO5)CC3)cc2O1 (as salt: hydrochloride)
19 | 235 to 237 °C | O=C(CCC1CCN(Cc2cccc(C(F)(F)F)c2)CC1)c1ccc2c(c1)CN(Cc1ccccc1)CCO2 (as salt: hydrochloride)
20 | 233 to 235 °C | O=C(CCC1CCN(Cc2ccc3c(c2)OCO3)CC1)c1ccc2c(c1)CN(Cc1ccccc1)CCO2 (as salt: hydrochloride)
21 | 245 to 248 °C (dec.) | O=C(CCCC1CCN(Cc2cccc(F)c2)CC1)c1ccc2c(c1)CCN(Cc1ccccc1)CC2 (as salt: hydrochloride)
22 | 242 to 247 °C (dec.) | O=C(CCCC1CCN(Cc2ccc([N+](=O)[O-])cc2)CC1)c1ccc2c(c1)CCN(Cc1ccccc1)CC2 (as salt: hydrochloride)
23 | 232 °C (dec.) | O=C(CCC1CCN(Cc2cc([N+](=O)[O-])cc([N+](=O)[O-])c2)CC1)c1ccc2c(c1)CN(Cc1ccccc1)CCO2 (as salt: hydrochloride)

Row | melting point | Structure (SMILES)
24 | 241 to 243 °C | O=C(CCC1CCN(Cc2cc(F)cc(F)c2)CC1)c1ccc2c(c1)CN(Cc1ccccc1)CCO2 (as salt: hydrochloride)
25 | 239 to 244 °C (dec.) | COC(=O)c1ccc(CN2CCC(CCCC(=O)c3ccc4c(c3)CCN(Cc3ccccc3)CC4)CC2)cc1 (as salt: hydrochloride)
26 | 158 to 164 °C | CS(=O)(=O)Nc1cccc(CN2CCC(CCCC(=O)c3ccc4c(c3)CCN(Cc3ccccc3)CC4)CC2)c1 (as salt: hydrochloride)
27 | 174 to 178 °C | Cc1ccc(CN2CCC(CCCC(=O)c3ccc4c(c3)CCN(Cc3ccccc3Cl)CC4)CC2)cc1 (as salt: hydrochloride)
28 | 230 to 234 °C | Cc1ccc(CN2CCC(CCCC(=O)c3ccc4c(c3)CCN(Cc3ccc(Cl)cc3)CC4)CC2)cc1 (as salt: hydrochloride)
29 | 197 to 199 °C | O=C(CCC1CCN(Cc2cccc(C(F)(F)F)c2)CC1)c1ccc2c(c1)CN(Cc1ccc(F)cc1)CCC2 (as salt: hydrochloride)
30 | 193 to 196 °C | O=C(CCCC1CCN(Cc2ccccc2Cl)CC1)c1ccc2c(c1)CCN(Cc1ccc(F)cc1F)CC2 (as salt: hydrochloride)
31 | 208 to 210 °C | Cc1ccccc1CN1CCC(CCCC(=O)c2ccc3c(c2)CCN(Cc2ccc(F)cc2F)CC3)CC1 (as salt: hydrochloride)
32 | 172 to 178 °C | CC(=O)Nc1ccccc1CN1CCC(CCCC(=O)c2ccc3c(c2)CCN(Cc2ccccc2C)CC3)CC1 (as salt: hydrochloride)
33 | 185 to 195 °C (dec.) | Cc1ccccc1CN1CCc2ccc(C(=O)CCCC3CCN(Cc4ccccc4NS(C)(=O)=O)CC3)cc2CC1 (as salt: hydrochloride)
34 | 189 to 192 °C | COC(=O)c1ccccc1CN1CCC(CCCC(=O)c2ccc3c(c2)CCN(Cc2ccccc2C)CC3)CC1 (as salt: hydrochloride)
35 | 225 to 227 °C (dec.) | O=C(CCC1CCNCC1)c1ccc2c(c1)CCN(Cc1ccc(F)cc1)CC2 (as salt: hydrochloride)
36 | 235 to 238 °C (dec.) | COc1ccc(CN2CCC(CCC(=O)c3ccc4c(c3)CCN(Cc3ccc(F)cc3)CC4)CC2)cc1 (as salt: hydrochloride)
37 | 199 to 203 °C | COc1ccc(CN2CCC(CCC(=O)c3ccc4c(c3)CCN(Cc3ccc(F)cc3)CC4)CC2)cc1OC (as salt: hydrochloride)
38 | 217 to 220 °C | O=C(CCC1CCN(Cc2ccccc2)CC1)c1ccc2c(c1)CCN(Cc1ccc(F)cc1)CC2 (as salt: hydrochloride)
39 | 230 to 236 °C (dec.) | CC(C)(C)c1ccc(CN2CCC(CCC(=O)c3ccc4c(c3)CCN(Cc3ccc(F)cc3)CC4)CC2)cc1 (as salt: hydrochloride)
40 | 166 to 169 °C | O=C(CCC1CCN(Cc2ccc(O)cc2)CC1)c1ccc2c(c1)CCN(Cc1ccc(F)cc1)CC2 (as salt: hydrochloride)
41 | 241 to 243 °C | O=C(CCC1CCN(Cc2cccc(F)c2)CC1)c1ccc2c(c1)CN(Cc1ccccc1)CCO2 (as salt: hydrochloride)
42 | 203 to 204 °C | O=C(CCC1CCN(Cc2ccccc2C(F)(F)F)CC1)c1ccc2c(c1)CN(Cc1ccc(F)cc1)CCO2 (as salt: hydrochloride)
43 | 240 to 242 °C | Cc1ccc(CN2CCC(CCC(=O)c3ccc4c(c3)CN(Cc3ccc(F)cc3)CCO4)CC2)cc1 (as salt: hydrochloride)
44 | 238 to 240 °C | O=C(CCC1CCN(Cc2ccccn2)CC1)c1ccc2c(c1)CN(Cc1ccccc1)CCO2 (as salt: hydrochloride)
45 | 218 to 226 °C (dec.) | COc1ccc(CN2CCc3ccc(C(=O)CCC4CCN(Cc5ccc(F)cc5)CC4)cc3CC2)cc1 (as salt: hydrochloride)
46 | 220 to 225 °C (dec.) | COc1ccc(CN2CCc3ccc(C(=O)CCC4CCN(Cc5ccc(-c6ccccc6)cc5)CC4)cc3CC2)cc1 (as salt: hydrochloride)

From patent US6534496B1, “Thermogenic composition and benzazepine thermogenics” (Takeda Chemical Industries, Inc., priority 1997, dated 2003)
